Results reported in patent US20220168384A1, “Anti-Bacterial Combination Therapy” (McMaster University, priority 2019, published 2022).

Key:
[1] = Chrome azurol S (CAS) plate assay; assay type: physicochemical; conditions: 10 μL of 2 mg/mL; room temperature 1 h
[2] = tested on: Acinetobacter baumannii clinical isolates; assay: Clinical isolates testing, A. baumannii; assay type: cell-based; conditions: 10:90
Protocol: (§1) Clinical isolates of P. aeruginosa and A. baumannii were inoculated from −80° C. stocks into 200 μL LB broth and grown with shaking at 200 rpm, 16 h, 37° C. in Nunc 96-well plates. The overnight cultures were subcultured (1:25 dilution) into 10:90 and grown with shaking at 200 rpm, 2 h, 37° C. Vehicle controls consisted of 4 μL of DMSO, 144 μL 10:90 and 2 μL of subculture. Sterile controls consisted of 4 μL of DMSO and 146 μL 10:90. […]. The final volume of each well was 150 μL and each checkerboard was repeated at least three times. Plates were incubated with shaking at 200 rpm, 16 h, 37° C. and OD600 was measured (Multiskan Go—Thermo Fisher Scientific). The results were plotted as percent of control (wells containing only DMSO) using Prism (GraphPad).
(§2) Clinical isolates were grown and tested as described in Example 1. Briefly, clinical isolates were inoculated from glycerol stocks stored at −80° C. into Nunc 96-well plates and grown overnight at 37° C., for 16 h with shaking in LB (200 rpm). Overnights were subcultured (1:25) into fresh 10:90 medium and grown for 2 h under the same growth conditions. Subcultures were diluted 1:75 in fresh 10:90. Compounds were diluted 1:75 to obtain the final concentration. DOXY and CLI were added at a final concentration of 1 μg/mL, CO was used at 2 μg/mL, TRO was used at 4 μg/mL, TS was used at 8.3 μg/mL, and DSX was used at 32 μg/mL. Vehicle and sterility controls were included. Plates were incubated overnight with the same conditions. The OD600 was read (Multiscan Go—Thermo Fisher Scientific), analyzed using Excel, and the data plotted using Prism (GraphPad).
(§3) Culture conditions, checkerboard assays using P. aeruginosa PA14 and dose-response assays were performed as described in Example 1. In addition to TS, other thiopeptides tested were siomycin A (SM), thiocillin I (TC), micrococcin P1 (MC), nosiheptide (NH), berninamycin A (BER), and geninthiocin A (GEN). For dose response assays of the combinations conducted in 10:90, DSX concentration was constant at 64 μg/mL.

[3] = tested on: P. aeruginosa clinical isolates; assay: Clinical isolates testing, P. aeruginosa; assay type: cell-based, Pseudomonas aeruginosa
Protocol: as §1, §2, §3

[4] = tested on: P. aeruginosa PA14; assay: Checkerboards pinned to LB agar (bactericidal activity); assay type: cell-based, Pseudomonas aeruginosa; conditions: overnight 37° C.
Protocol: Checkerboards were pinned to LB agar plates using a sterile 96 pin tool. Plates were incubated overnight at 37° C. Independent experiments were conducted 3 times and a representative plate is shown.

[5] = tested on: P. aeruginosa PA14; assay: Dose response and checkerboard assays against PA14; assay type: cell-based, Pseudomonas aeruginosa; conditions: PA14; for interaction with DSX: 2D checkerboard; for effect of 100 μM Fe^3+ on inhibitory activity: VAN + compound checkerboards; for synergy with TS: checkerboard, IC50 isobolograms, 10:90; for relative potency of synergy with TS: checkerboards, isobolograms and CI values
Protocol: (§4) Checkerboard assays were set-up using Nunc 96-well plates in an 8-well by 8-well format. Two columns were allocated for vehicle controls and two columns for sterility controls. Vehicle controls contained 2 μL DMSO plus 2 μL DFP solvent for checkerboards with TS and DFP or 4 μL DMSO for TS and DSX, in 146 μL of 10:90 medium or 10% serum inoculated with PA14 or PAO1-KP as described in Growth Curves. Sterile controls contained the same components in 10:90 medium or 10% serum, without cells. Serial dilutions of TS—with 17 μg/mL being the highest final concentration—were added along the y axis of the checkerboard (increasing concentration from bottom to top) whereas serial dilutions of DFP or DSX—with 512 μg/mL being the highest final concentration—were added along the x axis (increasing concentration from left to right). The final volume of each well was 150 μL and each checkerboard was repeated at least three times. Plates were incubated and the final OD600 determined as detailed above.
Culture conditions, growth assays, dose response and checkerboard assays using P. aeruginosa PA14 were performed as described in Example 1. Briefly, overnight cultures were grown in LB for 16 h, 37° C., 200 rpm then subcultured (1:500 dilution) into 10:90 for 6 h. Subcultures were standardized to OD600 of 0.10 and diluted 1:500 in fresh 10:90 before use. For the dose response assay, serial dilutions of compounds were added at 75 times the final concentration and diluted with 10:90 with cells to reach the desired final concentration. This was done in triplicate for technical replicates. Vehicle and sterile controls were included. The checkerboard assay was done similarly to the dose response assay but in an 8×8 format in a 96-well Nunc plate, with concentration of one drug increasing along the y-axis and the other along the x-axis. Sterility and vehicle controls were included with two columns allocated for each control. At least three biological replicates were repeated for the dose response and checkerboard assays.

[6] = aqueous media
[7] = UV-Vis absorption spectra assay for iron chelation; assay type: physicochemical; conditions: 300 μM compound and FeCl3; 300-700 nm; 1 h
Protocol: Equimolar concentrations of compound and FeCl3 were added in deionized H2O to a final concentration of 300 μM and a spectrum of wavelengths from 300 nm to 700 nm read after 1 h incubation at room temperature. The black dashed line is the spectrum of the compound in the absence of iron. The black solid line is the spectrum after the addition of iron. […] Chloramphenicol and ampicillin were used as negative controls. Each assay was performed at least 3 times and averaged values are shown.
(§5) Compounds were arrayed in Nunc 96 microwell plates. Vehicle controls contained Milli-Q H2O with 1:75 dilution of each compound at a final concentration of […]. The experimental set-up contained the same components as the vehicle control, with the addition of […] FeCl3. The final volume in each well was 150 μL. The plate was incubated at room temperature for one hour and absorption spectra from 300 nm to 700 nm was read in 2 nm increments (Multiskan Go—Thermo Fisher Scientific).

[8] = tested on: P. aeruginosa PAO1; assay: Checkerboard assays of TS with DFP, DSX or 10% serum; assay type: cell-based, Pseudomonas aeruginosa; conditions: 10:90
Protocol: Human serum (Corning) and mouse serum (Equitech-Bio) were stored at −20° C. Sera were aliquoted into 5-ml culture tubes by thawing once at 37° C. for 30 min with occasional gentle mixing. Culture tubes were frozen at −20° C. until use. To make 10% serum solutions, serum was thawed for 10 min at 37° C. and then heat inactivated at 57° C. for 30 min. Two milliliters of heat-inactivated serum were added to 18 ml of 10:90 medium and gently mixed. This 10% serum solution was used for checkerboard assays.
as §4

[9] = Qualitative assay for antibiotic-Fe3+ coloured complexes; assay type: physicochemical; conditions: stock antibiotic + FeCl3 final 10 μM; room temperature 1 h
Protocol: […]. Binding of iron by a compound causes spectral shifts that can detected visually. Five μL of stock concentration antibiotic was added to 5 μL of FeCl3 to a final FeCl3 concentration of 10 μM and incubated at room temperature for one hour. Negative controls without iron are indicated by a negative sign and droplets with FeCl3 are indicated with a positive sign; vehicle controls with Milli-Q H2O and DMSO were included.
as §5, with “Scientific). […]” for “Scientific).”

[10] = Pseudomonas aeruginosa, concentration used in clinical isolate testing, read-out: ⅛^th the MIC of PA14

Oc1c(I)cc(Cl)c2cccnc12 [CLI, Clioquinol]
decolourization of CAS agar (relative affinity for iron) [1]: Decolourization was not observed
susceptibility of A. baumannii strain C0286 [2]: susceptible
growth of C0379 with CLI at 8 μg/mL ([3]; TS 8.3 and DSX 32 μg/mL where combined): did not reduce growth below MIC
mode of activity of compound alone [4]: bacteriostatic
interaction with DSX [5]: antagonism
one-eighth of MIC against PA14 (test concentration) [5, 10]: 1 µg/mL
effect of 100 μM Fe^3+ on inhibitory activity [5]: abrogated
synergy with TS [5]: synergized
relative potency of synergy with TS [5]: most potent synergy
concentrations at which the compound precipitated [6]: above 8 μg/mL

O=c1cccccc1O [TRO, Tropolone]
decolourization of CAS agar (relative affinity for iron) [1]: greatest decolourization
susceptibility of C0379 compared to PA14 [3]: less susceptible
mode of activity of compound alone [4]: bacteriostatic
interaction with DSX [5]: indifferent
MIC [5, 10]: 4 µg/mL
effect of 100 μM Fe^3+ on inhibitory activity [5]: abrogated
synergy with TS [5]: synergized
relative potency of synergy with TS [5]: greater synergy
absorption spectrum after addition of FeCl3 [7]: showed shifts in their absorption spectra

Cc1c(O)c(=O)ccn1C [DFP, deferiprone]
effect of chelator on TS activity ([8]; checkerboard with TS): potentiated TS activity
activity of chelator on its own against P. aeruginosa ([8]; checkerboard, up to 512 μg/ml): neither chelator had activity
colour change upon addition of FeCl3 [9]: dark red/violet
absorption spectrum after addition of FeCl3 [7]: shifted
